The results in this text go back to publication PMC6430017, “Structural and chemical insights into the covalent-allosteric inhibition of the protein kinase Akt” (Chemical Science, 2019).

Broadly, the inhibition is the drop in the measured response relative to a control, in per cent.

Among the targets are PRKCH (PKC eta) (Homo sapiens, UniProt P24723); PAK4 (Homo sapiens, UniProt O96013); RPS6KA5 (MSK1) (Homo sapiens, UniProt O75582).
What all share (experiment): SelectScreen Z'LYTE kinase profiling
Common to all, as to format: biochemical
What all share (details): ATP at apparent KM

The target in another assay is T1, BRSK1 (SAD1) (Homo sapiens, UniProt Q8TDC3).
T1 sequence (Q8TDC3 1-778): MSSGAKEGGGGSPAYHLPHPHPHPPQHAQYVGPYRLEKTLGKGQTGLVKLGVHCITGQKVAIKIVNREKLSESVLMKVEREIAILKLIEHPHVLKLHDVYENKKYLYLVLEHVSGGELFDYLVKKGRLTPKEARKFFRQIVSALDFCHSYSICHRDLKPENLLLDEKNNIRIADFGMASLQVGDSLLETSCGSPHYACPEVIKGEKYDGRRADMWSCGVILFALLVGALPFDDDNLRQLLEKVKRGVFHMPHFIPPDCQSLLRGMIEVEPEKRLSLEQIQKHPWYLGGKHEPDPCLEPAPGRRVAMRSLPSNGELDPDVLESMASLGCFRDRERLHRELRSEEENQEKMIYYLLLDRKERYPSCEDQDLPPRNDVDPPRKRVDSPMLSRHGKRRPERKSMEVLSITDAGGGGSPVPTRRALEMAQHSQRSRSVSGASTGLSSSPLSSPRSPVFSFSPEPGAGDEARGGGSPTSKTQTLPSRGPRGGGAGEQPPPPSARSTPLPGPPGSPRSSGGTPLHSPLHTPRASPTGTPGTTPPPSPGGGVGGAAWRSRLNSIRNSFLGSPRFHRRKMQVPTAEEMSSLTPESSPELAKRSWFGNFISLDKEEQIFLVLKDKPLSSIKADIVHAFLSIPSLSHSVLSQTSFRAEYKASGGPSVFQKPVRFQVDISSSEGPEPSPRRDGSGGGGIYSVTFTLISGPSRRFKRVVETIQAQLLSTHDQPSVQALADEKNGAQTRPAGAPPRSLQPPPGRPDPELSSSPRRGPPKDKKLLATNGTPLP

In a further assay the target is T2, GRK7 (Homo sapiens, UniProt Q8WTQ7).
T2 sequence (Q8WTQ7 1-553): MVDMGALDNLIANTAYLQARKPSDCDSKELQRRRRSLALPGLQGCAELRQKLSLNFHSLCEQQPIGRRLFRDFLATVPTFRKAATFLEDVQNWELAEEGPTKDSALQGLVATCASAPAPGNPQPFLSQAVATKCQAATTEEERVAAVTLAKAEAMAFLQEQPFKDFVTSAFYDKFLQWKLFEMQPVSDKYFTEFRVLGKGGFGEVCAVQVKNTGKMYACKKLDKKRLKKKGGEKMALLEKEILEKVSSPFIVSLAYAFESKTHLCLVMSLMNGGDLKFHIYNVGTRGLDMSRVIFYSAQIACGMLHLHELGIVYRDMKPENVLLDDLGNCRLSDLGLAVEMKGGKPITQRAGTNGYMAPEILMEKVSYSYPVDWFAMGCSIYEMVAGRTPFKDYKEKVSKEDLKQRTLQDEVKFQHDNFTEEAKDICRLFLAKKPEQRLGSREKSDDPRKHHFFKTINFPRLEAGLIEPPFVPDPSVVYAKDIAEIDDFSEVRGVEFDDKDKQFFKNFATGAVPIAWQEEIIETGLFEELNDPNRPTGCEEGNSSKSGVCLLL

In the next assay the target is T3, PRKCN (PKD3) (Homo sapiens, UniProt O94806).
T3 sequence (O94806 1-890): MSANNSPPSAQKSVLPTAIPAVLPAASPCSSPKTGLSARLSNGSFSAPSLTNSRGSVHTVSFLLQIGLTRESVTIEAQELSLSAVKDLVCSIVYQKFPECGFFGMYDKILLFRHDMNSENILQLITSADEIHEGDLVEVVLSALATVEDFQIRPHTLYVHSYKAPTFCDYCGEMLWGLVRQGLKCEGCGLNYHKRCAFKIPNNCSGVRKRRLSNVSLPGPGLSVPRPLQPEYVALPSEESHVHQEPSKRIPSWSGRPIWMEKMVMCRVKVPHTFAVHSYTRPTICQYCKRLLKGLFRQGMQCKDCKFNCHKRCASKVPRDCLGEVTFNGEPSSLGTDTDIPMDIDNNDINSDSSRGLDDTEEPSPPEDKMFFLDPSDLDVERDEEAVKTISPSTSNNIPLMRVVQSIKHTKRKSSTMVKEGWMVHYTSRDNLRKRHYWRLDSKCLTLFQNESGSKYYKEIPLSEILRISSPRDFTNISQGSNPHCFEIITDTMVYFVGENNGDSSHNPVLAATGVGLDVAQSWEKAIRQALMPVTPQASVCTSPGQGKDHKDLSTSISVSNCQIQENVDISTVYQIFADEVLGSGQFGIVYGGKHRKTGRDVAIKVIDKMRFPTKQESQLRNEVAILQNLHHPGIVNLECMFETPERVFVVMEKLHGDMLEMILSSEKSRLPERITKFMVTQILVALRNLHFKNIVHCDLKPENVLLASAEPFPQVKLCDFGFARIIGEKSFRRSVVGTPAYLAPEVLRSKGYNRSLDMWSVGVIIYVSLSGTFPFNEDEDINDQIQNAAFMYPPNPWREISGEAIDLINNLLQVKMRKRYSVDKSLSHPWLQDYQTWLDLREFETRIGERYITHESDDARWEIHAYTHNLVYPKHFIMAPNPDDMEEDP

Molecules are shown by their SMILES.

Chain of PRKCH (PKC eta) (P24723 whole entry): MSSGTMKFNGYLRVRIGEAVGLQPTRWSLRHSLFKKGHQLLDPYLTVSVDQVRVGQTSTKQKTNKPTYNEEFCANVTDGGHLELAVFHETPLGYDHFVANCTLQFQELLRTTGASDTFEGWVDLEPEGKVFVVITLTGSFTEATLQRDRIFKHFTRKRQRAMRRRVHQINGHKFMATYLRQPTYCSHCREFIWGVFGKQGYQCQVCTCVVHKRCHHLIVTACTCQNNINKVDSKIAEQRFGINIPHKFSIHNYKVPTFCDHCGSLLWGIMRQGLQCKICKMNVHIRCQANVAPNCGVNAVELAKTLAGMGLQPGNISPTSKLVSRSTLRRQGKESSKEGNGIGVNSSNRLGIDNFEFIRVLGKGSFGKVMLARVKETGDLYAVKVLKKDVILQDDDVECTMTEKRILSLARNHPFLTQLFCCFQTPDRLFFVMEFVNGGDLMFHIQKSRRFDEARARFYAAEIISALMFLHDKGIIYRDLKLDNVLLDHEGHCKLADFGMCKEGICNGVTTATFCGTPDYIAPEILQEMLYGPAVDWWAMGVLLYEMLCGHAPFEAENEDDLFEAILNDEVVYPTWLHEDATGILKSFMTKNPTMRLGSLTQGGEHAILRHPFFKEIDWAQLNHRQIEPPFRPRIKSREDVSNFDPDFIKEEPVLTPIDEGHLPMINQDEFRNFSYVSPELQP
Chain of PAK4 (O96013 whole entry): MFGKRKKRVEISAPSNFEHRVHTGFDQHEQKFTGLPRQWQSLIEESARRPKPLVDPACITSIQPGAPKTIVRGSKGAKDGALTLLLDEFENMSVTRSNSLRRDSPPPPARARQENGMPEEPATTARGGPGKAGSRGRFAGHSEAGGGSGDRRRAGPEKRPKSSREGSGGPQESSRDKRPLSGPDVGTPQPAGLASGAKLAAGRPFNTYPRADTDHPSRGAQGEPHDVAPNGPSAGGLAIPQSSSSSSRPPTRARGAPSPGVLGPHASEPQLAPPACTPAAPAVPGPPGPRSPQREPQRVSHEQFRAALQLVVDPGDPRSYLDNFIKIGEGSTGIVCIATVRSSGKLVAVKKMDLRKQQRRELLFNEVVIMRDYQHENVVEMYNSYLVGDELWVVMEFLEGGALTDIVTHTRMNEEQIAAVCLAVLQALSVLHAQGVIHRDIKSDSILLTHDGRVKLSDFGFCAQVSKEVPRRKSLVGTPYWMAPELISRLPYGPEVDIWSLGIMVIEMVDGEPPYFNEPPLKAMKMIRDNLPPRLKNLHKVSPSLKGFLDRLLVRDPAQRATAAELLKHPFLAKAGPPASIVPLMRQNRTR
Chain of RPS6KA5 (MSK1) (O75582 whole entry): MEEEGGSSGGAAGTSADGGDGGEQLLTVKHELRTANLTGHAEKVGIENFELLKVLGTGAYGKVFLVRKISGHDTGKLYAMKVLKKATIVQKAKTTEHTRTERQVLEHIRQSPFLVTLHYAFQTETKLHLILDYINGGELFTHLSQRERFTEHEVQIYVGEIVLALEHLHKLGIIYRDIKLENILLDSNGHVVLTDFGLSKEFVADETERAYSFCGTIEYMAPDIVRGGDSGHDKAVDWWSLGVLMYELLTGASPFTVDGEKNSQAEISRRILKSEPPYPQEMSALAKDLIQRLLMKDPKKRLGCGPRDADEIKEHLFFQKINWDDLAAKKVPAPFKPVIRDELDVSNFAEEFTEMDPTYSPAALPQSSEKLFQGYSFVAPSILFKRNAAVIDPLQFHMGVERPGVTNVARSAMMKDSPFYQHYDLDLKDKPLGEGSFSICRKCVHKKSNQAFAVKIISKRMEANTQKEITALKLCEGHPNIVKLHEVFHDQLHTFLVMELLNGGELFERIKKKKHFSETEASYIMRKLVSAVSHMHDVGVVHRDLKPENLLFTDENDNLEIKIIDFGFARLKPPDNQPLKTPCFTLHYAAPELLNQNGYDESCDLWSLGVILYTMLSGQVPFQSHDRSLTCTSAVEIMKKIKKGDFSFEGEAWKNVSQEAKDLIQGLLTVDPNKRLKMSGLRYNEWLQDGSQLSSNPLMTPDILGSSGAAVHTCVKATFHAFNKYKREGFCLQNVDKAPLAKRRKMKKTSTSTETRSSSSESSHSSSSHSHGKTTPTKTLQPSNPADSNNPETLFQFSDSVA
Experimental for BRSK1 (SAD1): (§1) protein kinases at a compound concentration of 1 µM. Measurements were performed in duplicates
(§2) and at the particular apparent ATP KM of each individual kinase employing the activity based Z’LYTE®
(§3) kinase assay of the SelectScreen® Kinase Profiling Services (ThermoFisher Scientific).
(§4) kinases at a compound concentration of 1 µM. Measurements were performed in duplicates and at
(§5) the particular apparent ATP KM of each individual kinase employing the activity based Z’LYTE® kinase
(§6) assay of the SelectScreen® Kinase Profiling Services (ThermoFisher Scientific).
Experimental for GRK7: as §1, §2, §3, §4, §5, §6
Experimental for PAK4: as §1, §2, §3, §4, §5, §6
Experimental for PRKCH (PKC eta): as §1, §2, §3, §4, §5, §6
Experimental for PRKCN (PKD3): as §1, §2, §3, §4, §5, §6
Experimental for RPS6KA5 (MSK1): as §1, §2, §3, §4, §5, §6

Take `C=CC(=O)Nc1ccc2c(c1)n(C1CCN(Cc3ccc(-c4nc5cc[nH]c(=O)c5cc4-c4ccccc4)cc3)CC1)c(=O)n2C` [24b]: the inhibition at 1 µM on BRSK1 (SAD1) was 2%; on PRKCH (PKC eta), 7%; on GRK7, -4%; at PRKCN (PKD3) it was 10%; on PAK4, 12%; on RPS6KA5 (MSK1), 8%.

Take `C=CC(=O)Nc1cccc(C(=O)NC2CCN(Cc3ccc(-c4nc5cc[nH]c(=O)c5cc4-c4ccccc4)cc3)CC2)c1` [30b]: the inhibition at 1 µM on BRSK1 (SAD1) amounted to 7%; on PRKCH (PKC eta) it was 14%; at GRK7, 5%; at PRKCN (PKD3), 14%; on PAK4 it was 8%; at RPS6KA5 (MSK1), 13%.

For the compound `C=CC(=O)Nc1cc(NC(=O)NC2CCN(Cc3ccc(-c4nc5cc[nH]c(=O)c5cc4-c4ccccc4)cc3)CC2)ccc1Cl` [compound 27], the inhibition at 1 µM was found to be 16% at BRSK1 (SAD1); 21% on PRKCH (PKC eta); 5% on GRK7; 16% at PRKCN (PKD3); 16% at PAK4; 13% on RPS6KA5 (MSK1).
